Experimental data reported in patent US11000033B2, “Ketone or oxime compound, and herbicide” (NISSAN CHEMICAL CORPORATION, priority 2014, dated 2021).

Assays:
Assay type in all cases: in vivo
[1] = system: Digitaria ciliaris; assay: Test Example 4: herbicidal effect by soil treatment (symbol F); details: application herbicide amount 320 g/ha
Method in brief: (§1)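 Seeds were sown in sterilized diluvial soil, covered with about 1.5 cm of soil, and the soil surface was sprayed with a water-diluted emulsion of the compound at a predetermined rate. Plants grew in a greenhouse at 25° C. to 30° C.; effects were scored visually 3 weeks after application.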

[2] = system: Setaria viridis; assay: Test Example 4: herbicidal effect by soil treatment (symbol G); details: application herbicide amount 320 g/ha
Method in brief: as §1

[3] = system: corn; assay: Test Example 5: effect on crop by foliage application, plastic box (symbol c); details: 320 g/ha, 3 weeks after application
Method in brief: (§2)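 Diluvial soil, sterilized and boxed (21 × 13 × 7 cm), received spot-sown seed covered by about 1.5 cm soil; plants were then greenhouse-grown at 25–30° C.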

[4] = system: beet; assay: Test Example 5: effect on crop by foliage application, plastic box (symbol f); details: 320 g/ha, 3 weeks after application
Method in brief: as §2

[5] = system: Monochoria vaginalis; assay: Test Example 1: herbicidal activity, application before weed generation in submerged conditions (symbol C); details: application herbicide amount 320 g/ha
Method in brief: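 Compound emulsion was diluted to a set herbicide amount and applied to the water surface on the sowing day, into submerged (4 cm) alluvial-soil pots sown with mixed weed seeds and transplanted 2.5-leaf rice. Pots were held in a 25–30 °C greenhouse, and weeds were scored 0–5 by herbicidal ratio after 3 weeks.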

[6] = system: Echinochloa oryzacola Vasing.; assay: Test Example 2: herbicidal activity, application during weed generation in submerged conditions (symbol A); details: Table 23; application herbicide amount 320 g/ha; grade 0-5 by criteria of Test Example 1
Method in brief: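 Flooded-soil post-emergence test: emulsion of compound, water-diluted to target rate, applied to paddy water surface at 1–2 leaf stage of mixed-sown weeds (alluvial soil, 4 cm water, 25–30° C. greenhouse); visual rating 3 weeks after application.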

[7] = system: Abutilon theophrasti; assay: Test Example 5: herbicidal effect by foliage application, plastic box (symbol M); details: 320 g/ha, 3 weeks after application
Method in brief: (§3)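 Seeds were sown in sterilized diluvial soil, covered with about 1.5 cm of soil and grown 14 days in a greenhouse at 25° C. to 30° C. An emulsifiable formulation diluted in water to a set rate was sprayed over foliage, and injury was scored 3 weeks later.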

[8] = system: Amaranthus retroflexus; assay: Test Example 5: herbicidal effect by foliage application, plastic box (symbol N); details: 320 g/ha, 3 weeks after application
Method in brief: as §3

[9] = system: Chenopodium album; assay: Test Example 5: herbicidal effect by foliage application, plastic box (symbol O); details: 320 g/ha, 3 weeks after application
Method in brief: as §3

[10] = system: Leptochloa chinensis; assay: Test Example 3: herbicidal effect by foliage application, Wagner pot (symbol D); details: application herbicide amount 320 g/ha
Method in brief: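 Rating at 3 weeks post-spray, by defined criteria. Treatment: emulsion diluted with water to a predetermined amount, applied evenly to foliage of 14-day-old plants raised in alluvial soil flooded 0.1–0.5 cm deep at 25–30 °C, rice co-sown.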

[11] = system: Apera spica-venti; assay: Test Example 5: herbicidal effect by foliage application, plastic box (symbol L); details: 320 g/ha, 3 weeks after application
Method in brief: as §3

[12] = system: soybean; assay: Test Example 5: effect on crop by foliage application, plastic box (symbol d); details: 320 g/ha, 3 weeks after application
Method in brief: as §2

[13] = system: rapeseed; assay: Test Example 5: effect on crop by foliage application, plastic box (symbol g); details: 320 g/ha, 3 weeks after application
Method in brief: as §2

Row | SMILES | F (Digitaria ciliaris) herbicidal effect grade [1] | G (Setaria viridis) herbicidal effect grade [2] | c: corn, effect on crop grade [3] | f: beet, effect on crop grade [4] | Herbicidal effect grade, C: Monochoria vaginalis [5] | Herbicidal effect grade, A: Echinochloa oryzacola Vasing. [6] | M: Abutilon theophrasti, herbicidal effect grade [7] | N: Amaranthus retroflexus, herbicidal effect grade [8] | O: Chenopodium album, herbicidal effect grade [9] | herbicidal effect on D (Leptochloa chinensis), grade 0-5 [10] | L: Apera spica-venti, herbicidal effect grade [11] | d: soybean, effect on crop grade [12] | g: rapeseed, effect on crop grade [13] | F: Digitaria ciliaris, herbicidal effect grade [1] | G: Setaria viridis, herbicidal effect grade [2]
1 | CON=C(C)CC1CC(OC(=O)OC)=C(c2c(C)cc(C)cc2C)C1=O (centres unmarked) [1-014] | 5 (Herbicidal ratio of 90% or more (almost completely withered)) | 3 (Herbicidal ratio of 40% or higher and lower than 70%) | 5 (Herbicidal ratio of 90% or more (almost completely withered)) | 3 (Herbicidal ratio of 40% or higher and lower than 70%) | 2 (Herbicidal ratio of 20% or higher and lower than 40%) | 5 (Herbicidal ratio of 90% or more (almost completely withered)) | 5 (Herbicidal ratio of 90% or more (almost completely withered)) | 5 (Herbicidal ratio of 90% or more (almost completely withered)) | 3 (Herbicidal ratio of 40% or higher and lower than 70%) | 5 (Herbicidal ratio of 90% or more (almost completely withered)) | 5 (Herbicidal ratio of 90% or more (almost completely withered)) | 5 (Herbicidal ratio of 90% or more (almost completely withered)) | 4 (Herbicidal ratio of 70% or higher and lower than 90%) | – | –
2 | CCCC(=O)C(C(=O)OC)C1CC(O)=C(c2c(C)cc(C)cc2C)C1=O (centres unmarked) [2-020] | – | – | 1 (Herbicidal ratio of 5% or higher and lower than 20%) | 0 (Herbicidal ratio of 5% or lower (almost no effect)) | 0 (Herbicidal ratio of 5% or lower (almost no effect)) | 1 (Herbicidal ratio of 5% or higher and lower than 20%) | 0 (Herbicidal ratio of 5% or lower (almost no effect)) | 0 (Herbicidal ratio of 5% or lower (almost no effect)) | 0 (Herbicidal ratio of 5% or lower (almost no effect)) | 2 (Herbicidal ratio of 20% or higher and lower than 40%) | 0 (Herbicidal ratio of 5% or lower (almost no effect)) | 0 (Herbicidal ratio of 5% or lower (almost no effect)) | 0 (Herbicidal ratio of 5% or lower (almost no effect)) | 5 (Herbicidal ratio of 90% or more (almost completely withered)) | 5 (Herbicidal ratio of 90% or more (almost completely withered))
